According to PubChem BioAssay AID1963979 (Molecular Pharmacology Branch, DTP, NCI, 2024):
Where “and” joins values, the source holds several entries; their conditions need not be identical. Equal values may be shown once.

Test system: 361931-004-R-J1-PDC multicell spheroid viability
Experiment: Anticancer human tumor 361931-004-R-J1-PDC patient-derived colon adenocarcinoma cell line growth inhibition [PI3K]
Conditions: for viability, T/C: stronger effect = lower value; active = viability on the fitted dose curve at most 10% of control; inactive = the rest
In short: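 High-throughput combination screen: PI3K inhibitors crossed with targeted small molecules on complex spheroids of tumor cells, HUVEC and MSCs at 37 degrees C, 5% CO2. Top concentration was at or near clinical Cmax (otherwise 10 microM), with half-log decrements.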

[1] = curve of first compound, second compound 0.0316 µM
[2] = curve of first compound, second compound 0.1 µM
[3] = curve of first compound, second compound 0.316 µM
[4] = curve of first compound, second compound 1 µM
[5] = second compound 0.0316 µM, first compound 0.0316 µM
[6] = second compound 0.0316 µM, first compound 0.1 µM
[7] = second compound 0.0316 µM, first compound 0.316 µM
[8] = second compound 0.0316 µM, first compound 1 µM
[9] = second compound 0.0316 µM, first compound 3.16 µM
[10] = second compound 0.0316 µM, first compound 10 µM
[11] = second compound 0.1 µM, first compound 0.0316 µM
[12] = second compound 0.1 µM, first compound 0.1 µM
[13] = second compound 0.1 µM, first compound 0.316 µM
[14] = second compound 0.1 µM, first compound 1 µM
[15] = second compound 0.1 µM, first compound 3.16 µM
[16] = second compound 0.1 µM, first compound 10 µM
[17] = second compound 0.316 µM, first compound 0.0316 µM
[18] = second compound 0.316 µM, first compound 0.1 µM
[19] = second compound 0.316 µM, first compound 0.316 µM
[20] = second compound 0.316 µM, first compound 1 µM
[21] = second compound 0.316 µM, first compound 3.16 µM
[22] = second compound 0.316 µM, first compound 10 µM
[23] = second compound 1 µM, first compound 0.0316 µM
[24] = second compound 1 µM, first compound 0.1 µM
[25] = second compound 1 µM, first compound 0.316 µM
[26] = second compound 1 µM, first compound 1 µM
[27] = second compound 1 µM, first compound 3.16 µM
[28] = second compound 1 µM, first compound 10 µM
[29] = curve of first compound, second compound 0.00316 µM
[30] = curve of first compound, second compound 0.01 µM
[31] = second compound 0.00316 µM, first compound 0.0316 µM
[32] = second compound 0.00316 µM, first compound 0.1 µM
[33] = second compound 0.00316 µM, first compound 0.316 µM
[34] = second compound 0.00316 µM, first compound 1 µM
[35] = second compound 0.00316 µM, first compound 3.16 µM
[36] = second compound 0.00316 µM, first compound 10 µM
[37] = second compound 0.01 µM, first compound 0.0316 µM
[38] = second compound 0.01 µM, first compound 0.1 µM
[39] = second compound 0.01 µM, first compound 0.316 µM
[40] = second compound 0.01 µM, first compound 1 µM
[41] = second compound 0.01 µM, first compound 3.16 µM
[42] = second compound 0.01 µM, first compound 10 µM
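Note: spheroids exposed to agents for seven days before readout.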

CC1(C)CCC(CN2CCN(c3ccc(C(=O)NS(=O)(=O)c4ccc(NCC5CCOCC5)c([N+](=O)[O-])c4)c(Oc4cnc5[nH]ccc5c4)c3)CC2)=C(c2ccc(Cl)cc2)C1 + CC(Nc1ncnc2nc[nH]c12)c1cc2cccc(Cl)c2c(=O)n1-c1ccccc1
5.25 µM: IC50 (curve of first compound, second compound 3.16 µM)
inactive: viability, T/C [5] 105% | viability, T/C [6] 98.3% | viability, T/C [7] 104% | viability, T/C [8] 93.4% | viability, T/C [9] 89.4% | viability, T/C [11] 110% | viability, T/C [12] 95.2% | viability, T/C [13] 97.7% | viability, T/C [14] 102% | viability, T/C [15] 81.2% | viability, T/C [17] 108% | viability, T/C [18] 97.2% | viability, T/C [19] 106% | viability, T/C [20] 106% | viability, T/C [21] 81.7% | viability, T/C [23] 103% | viability, T/C [24] 99.2% | viability, T/C [25] 106% | viability, T/C [26] 102% | viability, T/C [27] 84% | viability, T/C (second compound 3.16 µM, first compound 0.0316 µM) 102% | viability, T/C (second compound 3.16 µM, first compound 0.1 µM) 109% | viability, T/C (second compound 3.16 µM, first compound 0.316 µM) 96% | viability, T/C (second compound 3.16 µM, first compound 1 µM) 96.5% | viability, T/C (second compound 3.16 µM, first compound 3.16 µM) 86.8% | viability, T/C (second compound 10 µM, first compound 0.0316 µM) 109% | viability, T/C (second compound 10 µM, first compound 0.1 µM) 99.6% | viability, T/C (second compound 10 µM, first compound 0.316 µM) 107% | viability, T/C (second compound 10 µM, first compound 1 µM) 107% | viability, T/C (second compound 10 µM, first compound 3.16 µM) 80.1%
5.02 µM: IC50 [2]
5.04 µM: IC50 [3]
active: viability, T/C [10] 3.37% | viability, T/C [16] 3.38% | viability, T/C [22] 3.3% | viability, T/C [28] 3.62% | viability, T/C (second compound 3.16 µM, first compound 10 µM) 3.29% | viability, T/C (second compound 10 µM, first compound 10 µM) 3.09%
4.96 µM: IC50 (curve of first compound, second compound 10 µM)
5.36 µM: IC50 [1]
5.15 µM: IC50 [4]

C[C@@H](NC(=O)c1ncnc(N)c1Cl)c1ncc(C(=O)Nc2cc(C(F)(F)F)c(Cl)cn2)s1 + CC(Nc1ccc2c(c1)OCCn1cc(N3C(=O)OCC3C(F)F)nc1-2)C(N)=O
> 10 µM: IC50 [29] | IC50 [30] | IC50 [1] | IC50 [2] | IC50 [3]
inactive: viability, T/C [31] 110% | viability, T/C [32] 102% | viability, T/C [33] 105% | viability, T/C [34] 91.2% | viability, T/C [35] 96.8% | viability, T/C [36] 84.6% | viability, T/C [37] 110% | viability, T/C [38] 109% | viability, T/C [39] 98% | viability, T/C [40] 89.6% | viability, T/C [41] 95% | viability, T/C [42] 75.4% | viability, T/C [5] 101% | viability, T/C [6] 105% | viability, T/C [7] 92.2% | viability, T/C [8] 99% | viability, T/C [9] 82.4% | viability, T/C [10] 73.1% | viability, T/C [11] 97.6% | viability, T/C [12] 97.1% | viability, T/C [13] 92.1% | viability, T/C [14] 88.7% | viability, T/C [15] 89.1% | viability, T/C [16] 59.9% | viability, T/C [17] 97.9% | viability, T/C [18] 86.8% | viability, T/C [19] 75.9% | viability, T/C [20] 78.2% | viability, T/C [21] 70.5% | viability, T/C [22] 47.2% | viability, T/C [23] 77.9% | viability, T/C [24] 80.2% | viability, T/C [25] 73.5% | viability, T/C [26] 66% | viability, T/C [27] 61.4% | viability, T/C [28] 41.5%
5.85 µM: IC50 [4]

Cn1cnc2c(F)c(Nc3ccc(Br)cc3Cl)c(C(=O)NOCCO)cc21
2.44 µM and > 3 µM and 2.72 µM: IC50 (curve of compound)
inactive: viability, T/C (compound 0.00949 µM) 97.8% [middle of 4 runs] | viability, T/C (compound 0.03 µM) 92.1% [middle of 4 runs] | viability, T/C (compound 0.0949 µM) 90% [middle of 4 runs] | viability, T/C (compound 0.3 µM) 86.4% [middle of 4 runs] | viability, T/C (compound 0.949 µM) 84% [middle of 4 runs] | viability, T/C (compound 3 µM) 62.8% [middle of 4 runs]

CC(C)NCC(C(=O)N1CCN(c2ncnc3c2C(C)CC3O)CC1)c1ccc(Cl)cc1 (stereo not drawn) + CC(Nc1ccc2c(c1)OCCn1cc(N3C(=O)OCC3C(F)F)nc1-2)C(N)=O
0.906 µM: IC50 [1]
inactive: viability, T/C [31] 93.3% | viability, T/C [32] 99% | viability, T/C [33] 78.1% | viability, T/C [34] 55.2% | viability, T/C [35] 31.6% | viability, T/C [36] 18.9% | viability, T/C [37] 105% | viability, T/C [38] 92.9% | viability, T/C [39] 75.9% | viability, T/C [40] 55.3% | viability, T/C [41] 31.8% | viability, T/C [42] 19.9% | viability, T/C [5] 97.9% | viability, T/C [6] 96.6% | viability, T/C [7] 76% | viability, T/C [8] 46.4% | viability, T/C [9] 30.2% | viability, T/C [10] 18.8% | viability, T/C [11] 101% | viability, T/C [12] 95% | viability, T/C [13] 71.2% | viability, T/C [14] 50.9% | viability, T/C [15] 41.8% | viability, T/C [16] 18.3% | viability, T/C [17] 90.5% | viability, T/C [18] 77.4% | viability, T/C [19] 74% | viability, T/C [20] 51.2% | viability, T/C [21] 28.6% | viability, T/C [22] 20.7% | viability, T/C [23] 72.3% | viability, T/C [24] 71.1% | viability, T/C [25] 68.9% | viability, T/C [26] 51.7% | viability, T/C [27] 25.3% | viability, T/C [28] 15.3%
1.09 µM: IC50 [4]
1.36 µM: IC50 [2]
1.24 µM: IC50 [30]
1.27 µM: IC50 [29]
1.04 µM: IC50 [3]
